Columns and labels:
Format in all cases: functional, cell-based
[1] = tested on: KB; assay: Cytotoxicity against human KB cells after 72 hrs by MTT assay
[2] = tested on: HepG2; assay: Cytotoxicity against human HepG2 cells after 72 hrs by MTT assay; details: HepG2, 72 h
[3] = tested on: OVCAR-3; assay: Cytotoxicity against human OVCAR-3 cells after 72 hrs by MTT assay; details: OVCAR-3, 72 h

Row | Compound | IC50 [1] [µM] | IC50 [2] [µM] | IC50 [3] [µM]
1 | O=c1c2ncn(-c3ccccc3)c2nc(NCc2ccccc2)n1-c1ccc(Cl)cc1 | 34.3 | 62.1 | 46.7
2 | O=c1c2ncn(-c3ccccc3)c2nc(N2CCCCC2)n1-c1ccc(Cl)cc1 | 72.8 | > 100 | > 100
3 | CNc1nc2c(ncn2-c2ccccc2)c(=O)n1-c1ccccc1 | > 100 | > 100 | > 100
4 | CCNc1nc2c(ncn2-c2ccccc2)c(=O)n1-c1ccccc1 | > 100 | > 100 | > 100
5 | CCCCCN(CCCCC)c1nc2c(ncn2-c2ccccc2)c(=O)n1-c1ccc(Cl)cc1 | 10.6 | > 100 | > 100
6 | CNc1nc2c(ncn2-c2ccccc2)c(=O)n1-c1ccc(Cl)cc1 | > 100 | > 100 | > 100
7 | CCCCNc1nc2c(ncn2-c2ccccc2)c(=O)n1-c1ccc(Cl)cc1 | 37.7 | 77.6 | 94.8
8 | CCCCN(CCCC)c1nc2c(ncn2-c2ccccc2)c(=O)n1-c1ccccc1 | 9.5 | 20.4 | 10
9 | CN(C)c1nc2c(ncn2-c2ccccc2)c(=O)n1-c1ccccc1 | 83.8 | > 100 | > 100
10 | CC(C)N(c1nc2c(ncn2-c2ccccc2)c(=O)n1-c1ccccc1)C(C)C | 53.5 | > 100 | > 100

From ChEMBL document CHEMBL1143317, “Efficient synthesis and biological evaluation of 1,2,9-trisubstituted 1,9-dihydro-6H-purin-6-ones” (Bioorg Med Chem Lett, 2009)
